Patent US10408843B2, “Compositions and methods for detecting S-nitrosylation and S-sulfinylation” (The Regents of the University of Michigan, priority 2013, dated 2019)

Experiments:
[1] = system: S-nitrosylated proteins in mammalian cell lysates; assay: Gel-based labeling of endogenous S-nitrosylated proteins in cell lysates; assay type: biochemical, human; conditions: lysates denatured, alkylated with iodoacetamide; streptavidin detection
Method: FIG. 8. Dose-dependent labeling of S-nitrosylated proteins by biotin-SO2H. 293T and PANC1 cells were lysed in 6 M urea/PBS and alkylated with 50 mM iodoacetamide for 30 minutes, followed by incubation with increasing concentrations of biotin-SO2H for 45 minutes.
Next, the reactivity of sulfinic acids with native S-nitrosylated proteins was examined. Biotin and fluorescein N-hydroxysuccinimide (NHS) esters were directly coupled to the biological sulfinic acid metabolite hypotaurine (biotin-SO2H) or the sulfonic acid metabolite taurine (biotin-SO3H). Each probe was incubated with mammalian cell lysates pre-alkylated with excess iodoacetamide (FIG. 1b) in 6 M urea/phosphate buffered saline (PBS), and separated by non-reducing SDS-PAGE for transfer to nitrocellulose and streptavidin detection. […]
Cells and lysates were protected from light and kept on ice throughout the labeling protocol, except when noted. […] Lysate protein concentrations were quantified using the Bio-Rad DC assay, and diluted 3 mg/mL in 6 M urea/PBS. […] For in-gel fluorescence analysis, samples were loaded without boiling using non-reducing SDS-PAGE loading buffer for SDS-PAGE separation. […] In-gel fluorescence and streptavidin blots were analyzed using a GE typhoon scanner at appropriate wavelengths (488/526 for fluorescein and 633/670 for Cy5-Streptavidin).

[2] = biological target: T1, Recombinant human GAPDH (Homo sapiens, UniProt P04406); assay: Labeling of recombinant GAPDH (in-gel fluorescence, LC-MS); assay type: biochemical; conditions: biotin-thiosulfonate modified tryptic peptide
T1 construct: 6His; made in house; host or cells: E. coli BL21
T1 sequence (P04406 whole entry): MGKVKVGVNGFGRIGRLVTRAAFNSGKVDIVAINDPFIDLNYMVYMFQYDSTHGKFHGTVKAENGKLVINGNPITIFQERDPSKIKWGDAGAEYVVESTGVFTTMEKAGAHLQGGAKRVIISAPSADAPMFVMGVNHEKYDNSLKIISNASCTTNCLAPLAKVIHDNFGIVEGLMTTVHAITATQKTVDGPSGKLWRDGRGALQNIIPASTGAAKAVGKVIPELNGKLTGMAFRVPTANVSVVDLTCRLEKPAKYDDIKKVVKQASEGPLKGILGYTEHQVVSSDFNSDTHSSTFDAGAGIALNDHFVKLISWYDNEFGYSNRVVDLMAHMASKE
Method: FIG. 14. Profiling fluorescein-SO2H reactivity and selectivity on S-nitrosylated GAPDH. Recombinant human GAPDH was resuspended in 6 M urea/PBS, treated with 50 mM iodoacetamide for 30 minutes, and mixed with dimedone, ascorbate, peroxide or NO donor (5 minutes). Fluorescein-SO2H (500 μM) was then added to the GAPDH sample for 45 minutes. S-nitrosylated human GAPDH labeling increases upon incubation with the NO donor MAHMA-NONOate, and decreases following treatment with ascorbate. […] Fluorescein-SO2H labeling is unaffected by pre-incubation with peroxide or dimedone.
FIG. 15. Biotin-SO2H reacts with human GAPDH and forms a thiosulfonate. Recombinant human GADPH was labeled with biotin-SO2H for site-specific analysis of S-nitrosylation by high-resolution mass spectrometry.
Given the efficient and selective conjugation of sulfinic acids and nitrosothiols, recombinant human GAPDH were next purified for targeted analysis of S-sulfinylation with biotin-SO2H. […] Biotin-SO2H-labeled GAPDH protein was digested with trypsin and analyzed by high-resolution mass spectrometry, identifying a biotin-thiosulfonate modified peptide encompassing the GAPDH catalytic cysteine (FIG. 15). […] These studies confirm direct detection of native of S-sulfinylation by sulfinic acid probes for mass spectrometry analysis.
Purified human GAPDH was diluted to 0.2 mg/mL in phosphate buffered saline (pH 7.3), and treated with 20 mM iodoacetamide for 30 minutes. Next, the sample was treated with 100 μM biotin-SO2H. Purified human DJ-1 was diluted to 0.2 mg/mL in PBS, and incubated with 20 mM iodoacetamide to alkylated free thiols. Next, the sample was treated with 2 mM hydrogen peroxide for 20 minutes to promote Cys106 sulfinic acid formation. […] Eluted peptides were analyzed using a Waters Synapt G2-S HDMS time-of-flight mass spectrometer in positive mode. […] MS data was searched using Waters Protein Lynx Global Server v3.0 using the exact mass calculated for the cysteine thiosulfonate modification.

SMILES: O=C(CCCC[C@@H]1SC[C@@H]2NC(=O)N[C@@H]21)NCCS(=O)O [biotin-SO2H, 2-(5-((3aS,4S,6aR)-2-oxohexahydro-1H-thieno[3,4-d]imidazol-4-yl)pentanamido)ethanesulfinic Acid]
- labeling of mammalian proteins [1]: labels distinct mammalian proteins
- modified cysteine of GAPDH identified by MS/MS [2]: Cys156
